Several values for one entry are separate records, joined by “and”; a condition that tells them apart may be missing. Equal entries are not always repeated. Where two headings read alike, the source gives them in different places.
Key:
[1] = system: QT interval on the body surface ECG; conditions: cited from earlier work; for QT shortening in the TQT study: range over the three drugs
Kv4.3/KChIP2.2 = target: T1, Kv4.3/KChIP2.2 (Homo sapiens, UniProt Q9UK17); assay: IonWorks Quattro Kv4.3/KChIP2.2 screen (AstraZeneca, Q); assay type: cell-based; conditions: IonWorks Quattro, −log10 of IC50 in Molar, Hill n = 1
T1 sequence (Q9UK17 1-655): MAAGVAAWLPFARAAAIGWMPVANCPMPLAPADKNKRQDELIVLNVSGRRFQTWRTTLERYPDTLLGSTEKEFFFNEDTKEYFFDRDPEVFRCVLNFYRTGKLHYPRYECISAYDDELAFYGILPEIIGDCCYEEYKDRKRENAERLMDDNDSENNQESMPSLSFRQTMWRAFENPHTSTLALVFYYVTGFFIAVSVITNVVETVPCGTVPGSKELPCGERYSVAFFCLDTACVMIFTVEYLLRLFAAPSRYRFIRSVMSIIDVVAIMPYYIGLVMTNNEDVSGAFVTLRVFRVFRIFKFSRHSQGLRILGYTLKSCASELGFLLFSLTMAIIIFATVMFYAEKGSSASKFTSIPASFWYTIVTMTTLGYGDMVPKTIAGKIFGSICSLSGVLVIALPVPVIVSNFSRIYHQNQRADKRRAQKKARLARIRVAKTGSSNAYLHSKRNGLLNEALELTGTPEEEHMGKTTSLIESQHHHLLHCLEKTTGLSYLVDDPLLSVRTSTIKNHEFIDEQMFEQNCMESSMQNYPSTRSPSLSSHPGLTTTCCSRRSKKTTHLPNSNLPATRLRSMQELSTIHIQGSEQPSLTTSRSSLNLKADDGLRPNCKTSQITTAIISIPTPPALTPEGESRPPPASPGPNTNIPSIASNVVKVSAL
T1 sequence (Q9NS61 1-270 partner): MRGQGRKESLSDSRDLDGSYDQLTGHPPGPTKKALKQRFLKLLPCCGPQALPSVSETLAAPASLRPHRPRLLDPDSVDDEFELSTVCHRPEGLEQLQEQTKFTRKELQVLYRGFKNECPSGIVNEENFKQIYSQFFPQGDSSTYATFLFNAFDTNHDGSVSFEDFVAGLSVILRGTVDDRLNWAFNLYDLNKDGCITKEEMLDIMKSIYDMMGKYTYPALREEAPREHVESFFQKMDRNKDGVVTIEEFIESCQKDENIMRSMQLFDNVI

[2] = Plasma concentration (Cmax) during the TQT study, total and calculated free; assay type: in vivo, human
[3] = ref Gintant (2011), cited from earlier work
[4] = ref Gintant (2011); cited from earlier work
KCNQ1/MinK = KCNQ1/MinK (Homo sapiens, UniProt P51787); assay: IonWorks Quattro KCNQ1/MinK screen (AstraZeneca, Q); conditions: −log10 of IC50 in Molar, Hill n = 1, 0.0 = pIC50 ≤ 0 fitted
CaV1.2 = CaV1.2 (Homo sapiens, UniProt Q13936); assay: IonWorks Quattro CaV1.2 screen (AstraZeneca, Q)
NaV1.5 [5] = target: T2, NaV1.5 (Homo sapiens, UniProt Q14524); assay: IonWorks Quattro NaV1.5 screen (AstraZeneca, Q)
NaV1.5 [6] = target: T2, NaV1.5; assay: Second IonWorks Quattro NaV1.5 screen (GSK, Q2)
[7] = Cmax high, calculated from ng/mL and molecular weight
[8] = Cmax high, calculated with PPB and molecular weight
[9] = Cmax low, calculated from ng/mL and molecular weight
[10] = 40 mg, ref FDA product label review
[11] = first (lower) of two lines, not labelled low/high
[12] = second (higher) of two lines, not labelled low/high
[13] = Cmax low, calculated with PPB and molecular weight
[14] = IonWorks Quattro, −log10 of IC50 in Molar, Hill n = 1, 0.0 = pIC50 ≤ 0 fitted

T2 sequence (Q14524 whole entry): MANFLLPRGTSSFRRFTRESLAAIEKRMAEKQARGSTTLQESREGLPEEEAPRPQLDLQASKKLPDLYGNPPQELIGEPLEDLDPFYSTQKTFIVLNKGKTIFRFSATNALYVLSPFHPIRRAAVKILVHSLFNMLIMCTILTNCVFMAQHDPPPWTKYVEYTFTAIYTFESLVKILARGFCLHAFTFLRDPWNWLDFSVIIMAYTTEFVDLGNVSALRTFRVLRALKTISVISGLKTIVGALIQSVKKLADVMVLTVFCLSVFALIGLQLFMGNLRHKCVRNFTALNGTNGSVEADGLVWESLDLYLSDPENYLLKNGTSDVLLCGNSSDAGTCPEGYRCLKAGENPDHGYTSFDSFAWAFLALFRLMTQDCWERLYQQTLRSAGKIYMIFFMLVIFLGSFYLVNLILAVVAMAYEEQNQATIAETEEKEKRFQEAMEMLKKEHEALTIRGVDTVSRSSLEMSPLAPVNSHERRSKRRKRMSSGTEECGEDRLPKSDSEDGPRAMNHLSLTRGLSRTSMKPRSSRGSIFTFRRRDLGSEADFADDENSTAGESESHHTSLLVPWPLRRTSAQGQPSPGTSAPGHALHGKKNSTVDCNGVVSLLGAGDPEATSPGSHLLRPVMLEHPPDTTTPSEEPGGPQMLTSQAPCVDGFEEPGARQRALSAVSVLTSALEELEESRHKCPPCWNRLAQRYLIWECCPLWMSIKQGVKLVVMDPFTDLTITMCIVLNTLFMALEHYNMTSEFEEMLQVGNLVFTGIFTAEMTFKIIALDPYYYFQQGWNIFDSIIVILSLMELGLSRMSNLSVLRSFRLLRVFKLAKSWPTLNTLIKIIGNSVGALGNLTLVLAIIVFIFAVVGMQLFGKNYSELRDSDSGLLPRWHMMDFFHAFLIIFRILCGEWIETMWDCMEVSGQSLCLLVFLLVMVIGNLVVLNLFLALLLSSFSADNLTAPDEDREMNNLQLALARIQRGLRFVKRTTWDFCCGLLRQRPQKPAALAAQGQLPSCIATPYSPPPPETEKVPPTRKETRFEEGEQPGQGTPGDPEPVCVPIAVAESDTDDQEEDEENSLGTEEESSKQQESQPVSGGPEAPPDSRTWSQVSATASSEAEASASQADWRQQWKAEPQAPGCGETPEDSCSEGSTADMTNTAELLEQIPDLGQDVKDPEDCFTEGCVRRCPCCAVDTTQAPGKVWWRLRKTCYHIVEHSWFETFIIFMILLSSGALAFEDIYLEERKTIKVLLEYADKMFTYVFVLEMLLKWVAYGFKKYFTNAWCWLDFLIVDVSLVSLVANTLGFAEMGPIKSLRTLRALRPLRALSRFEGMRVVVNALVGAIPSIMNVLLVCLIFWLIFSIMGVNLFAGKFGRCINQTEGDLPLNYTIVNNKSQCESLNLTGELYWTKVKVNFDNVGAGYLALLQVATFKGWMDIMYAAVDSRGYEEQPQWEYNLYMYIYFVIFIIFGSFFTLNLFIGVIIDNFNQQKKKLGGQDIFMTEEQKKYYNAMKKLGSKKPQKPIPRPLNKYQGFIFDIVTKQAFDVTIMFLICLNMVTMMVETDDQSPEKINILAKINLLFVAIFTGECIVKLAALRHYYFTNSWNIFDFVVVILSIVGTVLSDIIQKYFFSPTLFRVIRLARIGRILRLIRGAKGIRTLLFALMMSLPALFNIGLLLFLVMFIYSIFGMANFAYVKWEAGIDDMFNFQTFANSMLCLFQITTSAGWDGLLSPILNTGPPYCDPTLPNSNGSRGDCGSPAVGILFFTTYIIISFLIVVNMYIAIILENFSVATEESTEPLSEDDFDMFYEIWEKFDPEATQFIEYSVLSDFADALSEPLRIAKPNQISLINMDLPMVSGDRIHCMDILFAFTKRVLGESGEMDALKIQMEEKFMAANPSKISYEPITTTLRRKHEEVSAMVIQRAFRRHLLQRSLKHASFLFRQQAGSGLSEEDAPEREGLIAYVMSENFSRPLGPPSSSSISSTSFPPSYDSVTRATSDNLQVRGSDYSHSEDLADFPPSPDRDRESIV
Sequence of KCNQ1/MinK (P51787 whole entry): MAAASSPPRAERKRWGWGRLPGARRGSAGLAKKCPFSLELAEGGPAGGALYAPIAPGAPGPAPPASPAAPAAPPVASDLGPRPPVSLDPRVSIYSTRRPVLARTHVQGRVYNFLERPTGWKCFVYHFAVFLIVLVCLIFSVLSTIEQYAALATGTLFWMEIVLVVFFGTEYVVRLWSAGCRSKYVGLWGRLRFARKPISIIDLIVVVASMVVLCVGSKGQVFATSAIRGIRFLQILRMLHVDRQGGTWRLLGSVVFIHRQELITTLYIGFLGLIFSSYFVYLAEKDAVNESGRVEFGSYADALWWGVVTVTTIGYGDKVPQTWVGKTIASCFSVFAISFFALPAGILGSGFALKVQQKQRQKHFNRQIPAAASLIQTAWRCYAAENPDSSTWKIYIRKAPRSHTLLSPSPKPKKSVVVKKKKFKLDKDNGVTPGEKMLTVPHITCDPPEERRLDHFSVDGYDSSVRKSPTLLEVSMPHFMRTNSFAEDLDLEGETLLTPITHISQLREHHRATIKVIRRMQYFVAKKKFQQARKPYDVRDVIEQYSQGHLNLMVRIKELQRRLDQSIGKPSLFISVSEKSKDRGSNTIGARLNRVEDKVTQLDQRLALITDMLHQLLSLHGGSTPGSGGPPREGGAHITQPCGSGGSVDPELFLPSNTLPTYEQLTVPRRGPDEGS

COCCCOc1cc(C[C@@H](C[C@H](N)[C@@H](O)C[C@H](C(=O)NCC(C)(C)C(N)=O)C(C)C)C(C)C)ccc1OC [ALISKIRIN]
relationship between exposure and QTc in words (COMMENTS) ([1]; ref Gintant (2011)): Lack of relationship between aliskirin exposure and QTcF

COc1cc2nc(N(C)CCCNC(=O)C3CCCO3)nc(N)c2cc1OC (centres unmarked) [Alfuzosin]
Kv4.3 pIC50 (Q) (Kv4.3/KChIP2.2; 0.0 = pIC50 ≤ 0 fitted): 3.0 | Free plasma concentration ([2]; Cmax high): 7.739 nM | Cmax TOTAL [2, 7]: 77.39 nM | Cmax FREE ([2]; Cmax high, calculated with PPB): 4.05 ng/mL | Cmax FREE [2, 8]: 7.74 nM | Free plasma concentration ([2]; Cmax low): 1.529 nM | Cmax TOTAL [2, 9]: 15.29 nM | Cmax FREE ([2]; Cmax low, calculated with PPB): 0.80 ng/mL | estimated TQT concentration (free plasma) ([2]; largest dose in the TQT study): < 10^–2 μM | QTc change, individual correction [1, 10]: 4.3 ms | QTc change, population correction [1, 10]: 4.2 ms | Cmax TOTAL ([3]; Cmax high): 40.5 ng/mL | Cmax TOTAL ([3]; Cmax low): 8 ng/mL | PPB (percent plasma binding) [4]: 90% ppb | KCNQ1 pIC50 (Q) (KCNQ1/MinK): 3.9

NC(=O)C(c1ccccc1)(c1ccccc1)[C@@H]1CCN(CCc2ccc3c(c2)CCO3)C1 [Darifenacin]
Kv4.3 pIC50 (Q) (Kv4.3/KChIP2.2; 0.0 = pIC50 ≤ 0 fitted): 4.9 | Cmax FREE [2, 11]: 0.112 ng/mL and 0.2207 nM | Cmax TOTAL [2, 11]: 11.0345 nM | Free plasma concentration [2, 11]: 0.2207 nM | Cmax FREE [2, 12]: 1.266 ng/mL and 2.495 nM | Cmax TOTAL [2, 12]: 124.729 nM | Free plasma concentration [2, 12]: 2.495 nM | QT shortening in the TQT study ([1]; ref Gintant (2011)): 2 to 7 ms | Cmax TOTAL [3, 11]: 5.6 ng/mL | Cmax TOTAL [3, 12]: 63.3 ng/mL | PPB (percent plasma binding) [4]: 98% PPB

Cc1nc(Nc2ncc(C(=O)Nc3c(C)cccc3Cl)s2)cc(N2CCN(CCO)CC2)n1.O [Dasatinib]
Kv4.3 pIC50 (Q) (Kv4.3/KChIP2.2; […]): 3.5 | Free plasma concentration ([2]; Cmax high): 20.79 nM | Cmax TOTAL [2, 7]: 519.742 nM | Cmax FREE ([2]; Cmax high, calculated with PPB): 10.52 ng/mL | Cmax FREE [2, 8]: 20.790 nM | Free plasma concentration ([2]; Cmax low): 7.905 nM | Cmax TOTAL [2, 9]: 197.621 nM | Cmax FREE ([2]; Cmax low, calculated with PPB): 4 ng/mL | Cmax FREE [2, 13]: 7.905 nM | Cmax TOTAL ([3]; Cmax high): 263 ng/mL | Cmax TOTAL ([3]; Cmax low): 100 ng/mL | PPB (percent plasma binding) [4]: 96% PPB

O=C(O)c1ccc(-n2nc(-c3ccccc3O)nc2-c2ccccc2O)cc1 [Deferasirox]
Cmax FREE ([2]; Cmax 40mg/kg): 995 nM | Cmax TOTAL ([2]; Cmax 40mg/kg): 199000 nM | Free plasma concentration ([2]; Cmax 40mg/kg): 995 nM | Cmax TOTAL ([3]; Cmax TQT, 40mg/kg, comes from docs): 199 comes from docs for Cmax uM | PPB (percent plasma binding) [4]: 99.5% | CaV1.2 pIC50 (Q) (CaV1.2; [14]): 3.0 | NaV1.5 pIC50 (Q) (NaV1.5 [5]; [14]): 4.1 | NaV1.5 pIC50 (Q2) (NaV1.5 [6]; second independent Quattro screening, −log10 of IC50 in Molar, 0.0 = pIC50 ≤ 0 fitted): 3.3

CN(CCOc1ccc(NS(C)(=O)=O)cc1)CCc1ccc(NS(C)(=O)=O)cc1 [Dofetilide]
plasma concentration ([2]; end of the line in nM): 9.5 nM | plasma concentration ([2]; end of the line in ng/mL): 4.195 nM | therapeutic range, lower value ([2]; line in ng/mL): 0.1766 ng/mL | therapeutic range, upper value ([2]; line in ng/mL): 0.8832 ng/mL | total plasma conc ([2]; line in ng/mL): 4.1952 ng/mL | total plasma conc [3]: 9.5 nM

C[C@@H](O)[C@H]1C(=O)N2C(C(=O)O)=C(S[C@@H]3CN[C@H](CNS(N)(=O)=O)C3)[C@H](C)[C@H]12 [Doripenem]
Free plasma concentration ([2]; Cmax high): 98346.2 nM | Cmax FREE ([2]; Cmax high, calculated with PPB): 41355 ng/mL | Cmax FREE [2, 8]: 98346.2 nM | Free plasma concentration ([2]; Cmax low): 45894.9 nM | Cmax FREE ([2]; Cmax low, calculated with PPB): 19299 ng/mL | Cmax FREE [2, 13]: 45894.9 nM | Cmax TOTAL ([3]; Cmax high): 45000 ng/mL | Cmax TOTAL ([3]; Cmax low): 21000 ng/mL | PPB (percent plasma binding) [4]: 8.1% PPB | CaV1.2 pIC50 (Q) (CaV1.2): 5.7

Cc1cc(C#N)cc(C)c1Oc1nc(Nc2ccc(C#N)cc2)nc(N)c1Br [Etravirine]
Kv4.3 pIC50 (Q) (Kv4.3/KChIP2.2; 0.0 = pIC50 ≤ 0 fitted): 2.5 | Cmax FREE ([2]; Cmax high, calculated with PPB): 1.322 ng/mL | Cmax FREE [2, 8]: 3.037 nM | Cmax FREE ([2]; Cmax low, calculated with PPB): 0.921 ng/mL | Cmax FREE [2, 13]: 2.116 nM | QTc change (QTcF) ([1]; TQT study, highest dose, ref Gintant (2011)): -5.70 ms | QT shortening in the TQT study ([1]; ref Gintant (2011)): 2 to 7 ms | TQT study outcome in words (COMMENTS) ([1]; ref Gintant (2011)): QT shortening | Cmax TOTAL ([3]; Cmax high): 1322 ng/mL | Cmax TOTAL ([3]; Cmax low): 921 ng/mL | mean Cmax ([3]; supratherapeutic / highest dose of the TQT study): 1378 ng/mL | PPB (percent plasma binding) [4]: 99.9% PPB | KCNQ1 pIC50 (Q) (KCNQ1/MinK): 2.9

COc1c(N2C[C@@H]3CCCN[C@@H]3C2)c(F)cc2c(=O)c(C(=O)O)cn(C3CC3)c12 [Moxifloxacin]
Free plasma concentration ([2]; Cmax low): 2745 nM | Cmax FREE ([2]; Cmax low, calculated with PPB): 1257.030 ng/mL | Cmax TOTAL ([3]; Cmax low): 2793.4 ng/mL | PPB (percent plasma binding) [4]: 55% PPB

Cc1cn(-c2cc(NC(=O)c3ccc(C)c(Nc4nccc(-c5cccnc5)n4)c3)cc(C(F)(F)F)c2)cn1 [Nilotinib]
Free plasma concentration ([2]; Cmax low): 83.86 nM | Cmax TOTAL [2, 9]: 4193.028 nM | Cmax FREE ([2]; Cmax low, calculated with PPB): 45.200 ng/mL | Cmax FREE [2, 13]: 83.861 nM | Cmax TOTAL ([3]; Cmax low): 2260 ng/mL | PPB (percent plasma binding) [4]: 98% PPB | NaV1.5 pIC50 (Q) (NaV1.5 [5]): 3.0 | NaV1.5 pIC50 (Q2) (NaV1.5 [6]): […]

O=C1c2cccc3c2[C@H](CCC3)CN1[C@@H]1CN2CCC1CC2 [Palonosetron]
Free plasma concentration ([2]; Cmax high): 6.393 nM | Cmax TOTAL [2, 7]: 16.823 nM | Cmax FREE ([2]; Cmax high, calculated with PPB): 2.128 ng/mL | Cmax FREE [2, 8]: 6.393 nM | Free plasma concentration ([2]; Cmax low): 2.91 nM | Cmax TOTAL [2, 9]: 7.658 nM | Cmax FREE ([2]; Cmax low, calculated with PPB): 0.9686 ng/mL | Cmax FREE [2, 13]: 2.910 nM | TQT study outcome in words (COMMENTS) ([1]; ref Gintant (2011)): Product labeling: no significant effect on any ECG interval | Cmax TOTAL ([3]; Cmax high): 5.6 ng/mL | Cmax TOTAL ([3]; Cmax low): 2.549 ng/mL | PPB (percent plasma binding) [4]: 62%

CCCc1nn(C)c2c(=O)[nH]c(-c3cc(S(=O)(=O)N4CCN(C)CC4)ccc3OCC)nc12 [Sildenafil]
Kv4.3 pIC50 (Q) (Kv4.3/KChIP2.2; 0.0 = pIC50 ≤ 0 fitted): 3.3 | Cmax FREE ([2]; Cmax high, calculated with PPB): 60.76 ng/mL | Cmax FREE [2, 8]: 128.024 nM | Cmax FREE ([2]; Cmax low, calculated with PPB): 7.12 ng/mL | Cmax FREE [2, 13]: 15.0021 nM | PPB (percent plasma binding) [4]: 96% | NaV1.5 pIC50 (Q) (NaV1.5 [5]): 3.3 | NaV1.5 pIC50 (Q2) (NaV1.5 [6]): 2.9

O=C(O[C@H]1CN2CCC1CC2)N1CCc2ccccc2[C@@H]1c1ccccc1 [Solifenacin]
PPB (percent plasma binding) [4]: 98% PPB

CC[C@@H](c1cccc(O)c1)[C@@H](C)CN(C)C [TAPENTADOL]
TQT study outcome in words (COMMENTS) ([1]; ref Gintant (2011)): 90% Confidence interval; study considered negative
